Results on 3 substances are retold here after patent US8551947B2, “Treatment of hibernating myocardium with an exendin peptide” (Amylin Pharmaceuticals, LLC, priority 2000, dated 2013).

For one assay, the system named is pancreas. Particulars: cited from earlier work.
For assay [1], the system named is HM dog model (pacing-induced heart failure). In words: Paced dog model of hibernating myocardium: 48 h i.v. infusion, plasma catecholamines and hemodynamics. The format is in vivo, Beagle dogs. The settings on record: for LV contractility (dP/dt) restored to: Dog A (FIG. 1); for LV ejection fraction (LVEF) improved to: Dog A (FIG. 2); for LV wall thickening: Dog A (FIG. 3); for Cardiac output (CO): Dog A (FIG. 4); for CBF (coronary blood flow) / LVEDP (LV end-diastolic pressure) / LVP (left ventricular pressure) / MVO2 (myocardial oxygen consumption) / dP/dt (left ventricular contractility) / NE (plasma norepinepherine): GLP-1 group. An excerpt: The “paced dog” model, used in the Example below, provides a system to study NM, because the exertion of the heart exceeds the heart's ability to respond, which creates an energy-limited situation. Other suitable animal models are available to study chronically dysfunctional viable myocardium, in dogs and pigs, for example, which allow laboratory study of therapeutic regimens. […] Canty a al., Am. J. Physiol, 277; H417-H422 (1999). Similar animal models in diabetic dogs, mice and rats are available for the study of DCM. Bell (1995); Fein (1990).
Beagle dogs were fitted with telemetry devices that permit tong-term ambulatory data collection in conscious animals. These devices measured LV pressure, myocardial oxygen consumption (MVO2, an expression of myocardial efficiency), coronary flow (CBF), and cardiac output (CO). The dogs were “paced,” such that heart rate was forced up to about 240 beats per minute, for 3-4 weeks, which induces moderate HM in a predictable manner. This HM dog model is an accepted model for assessing the effectiveness of treatments for HM. Kiuchi et al., “Myocardial beta-adrenergic receptor function during the development of pacing-induced heart failure.” J. Clin. Invest. 91: 907-914 (1993).
During the treatment period, “pacing” was discontinued. Plasma catecholamines were assessed before and after infusion, along with LV pressures, coronary and systemic hemodynamics, and MVO2.

Where [2] appears, read: 48 h i.v. infusion 1.5 pmol/kg/min, after vs before.
[3] abbreviates: AFTER 48 h i.v. infusion 1.5 pmol/kg/min.

No end group written: not given here.

For “Glu Gly Thr Phe Thr Ser Asp Val Ser Ser Tyr Leu Glu Gly Gln Ala Ala Lys Glu Phe Ile Ala Trp Leu Val Lys Gly Arg (NH2) (EGTFTSDVSSYLEGQAAKEFIAWLVKGR-NH2) [SEQ ID NO:6]”, the “stimulation of production or release of insulin from the pancreas” value in the assay with pancreas is recorded as “do not stimulate production or release of insulin”.

rGLP-1 (7-36) amide: in assay [1] (setting [2]), the “Effect of treatment on LV end-diastolic pressure (LVEDP), in words” value is “significantly decreasing”; the “Effect of treatment on cardiac output (CO), in words” value was “significantly (*p<0.05) increased”; the “Effect of treatment on coronary blood flow (CBF), in words” value is “significantly (*p<0.05) increased”; the “Effect of treatment on left ventricular contractility (LV dP/dt), in words” value was “significantly (*p<0.05) increased”. In assay [1] (setting [2]), the “Effect of treatment on left ventricular pressure (LVP), in words” value is “significantly (*p<0.05) increased” and the “Effect of treatment on myocardial oxygen consumption (MVO2), in words” value was “significantly (*p<0.05) increased”. Also, the “LV contractility (dP/dt) restored to” value in assay [1] (24 hours of treatment, pacing had reduced contractility by 60%) is 80 % of baseline. In assay [1] (48 hours of treatment), the “LV contractility (dP/dt) restored to” value is 90 % of baseline, the “LV ejection fraction (LVEF) improved to” value is recorded as 95 % of the baseline value, the LV wall thickening was 147 % of the baseline value and the “Cardiac output (CO)” value is 116 % of baseline. The “LV ejection fraction (LVEF) improved to” value in assay [1] (24 hours of treatment, pacing had reduced LVEF by 40%) is reported as 88 % of the baseline value. Also, in assay [1] (24 hours of treatment, pacing had reduced wall thickening by 20%), the LV wall thickening result is given as “recovered”. Moreover, the “Cardiac output (CO)” value in assay [1] (24 hours of treatment, pacing had reduced CO by 30%) is “restored to baseline levels”. In addition, in assay [1] (setting [3]), the “CBF (coronary blood flow)” value was determined as 37 ± 3 mL/min, the “LVEDP (LV end-diastolic pressure)” value turned out to be 15 ± 1 mm Hg, the “LVP (left ventricular pressure)” value turned out to be 108 ± 2 mm Hg and the “MVO2 (myocardial oxygen consumption)” value was 297 ± 16 ml O2/min. Also, the “dP/dt (left ventricular contractility)” value in assay [1] (setting [3]) worked out at 2212 ± 86 mm Hg/s. Further, the “NE (plasma norepinepherine)” value in assay [1] (AFTER 48 h i.v. infusion 1.5 pmol/kg/min, *p<0.05) was 1.62 ± 0.11* nmol/ml. For the same substance, the “NE (plasma norepinepherine)” value in assay [1] (AFTER 48 h i.v. infusion 1.5 pmol/kg/min, *p<0.05, listed as CLP-1) came out at 1.62 ± 0.11 nmol/mL. Besides, in assay [1] (BEFORE infusion), the “CBF (coronary blood flow)” value was 27 ± 1 mL/min, the “LVEDP (LV end-diastolic pressure)” value is on record as 25 ± 1 mm Hg, the “LVP (left ventricular pressure)” value is on record as 98 ± 2 mm Hg and the “MVO2 (myocardial oxygen consumption)” value was 246 ± 18 ml O2/min. Moreover, the “dP/dt (left ventricular contractility)” value in assay [1] (BEFORE infusion) is 1127 ± 86 mm Hg/s. In addition, the “NE (plasma norepinepherine)” value in assay [1] (BEFORE infusion (after 3-4 weeks pacing), five dogs) stood at 2.30 ± 0.15 nmol/mL. Besides, the “NE (plasma norepinepherine)” value in assay [1] (BEFORE infusion (after 3-4 weeks pacing), five dogs, listed as CLP-1) is 2.30 ± 0.15 nmol/mL.

In the case of “Glu Gly Thr Phe Thr Ser Asp Val Ser Ser Tyr Leu Glu Gly Gln Ala Ala Lys Glu Phe Ile Ala Trp Lau Val Lys Gly Arg Gly (EGTFTSDVSSYLEGQAAKEFIAWLVKGRG; not fully specified; printed as Glu Gly Thr Phe Thr Ser Asp Val Ser Ser Tyr Leu Glu Gly Gln Ala Ala Lys Glu Phe Ile Ala Trp Lau Val Lys Gly Arg Gly) [SEQ ID NO:5]”, in the assay on pancreas, the “stimulation of production or release of insulin from the pancreas” value is “do not stimulate production or release of insulin”.
